Results reported in PubChem BioAssay (NCI).
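Assay format: 96-well plates, 48-hour exposure. GI50 marks 50% less growth. TGI marks complete inhibition of growth.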

Tests used:
Experiment in all cases: NCI anticancer screen, dose series, 48 h
SF-268 CNS = test system: SF-268 CNS
OVCAR-5 ovarian = test system: OVCAR-5 ovarian
RPMI-8226 leukemia = test system: RPMI-8226 leukemia
U251 CNS = test system: U251 CNS
SNB-19 CNS = test system: SNB-19 CNS
NCI/ADR-RES ovarian = test system: NCI/ADR-RES ovarian
M14 melanoma = test system: M14 melanoma
NCI-H23 lung = test system: NCI-H23 lung
SNB-75 CNS = test system: SNB-75 CNS
UACC-257 melanoma = test system: UACC-257 melanoma

COc1ccc(Oc2cnn(C(Br)(Br)C(C)=O)c(=O)c2Br)cc1 gave a TGI (SF-268 CNS) of 29 µM, a TGI (OVCAR-5 ovarian) of 32.2 µM and a TGI (RPMI-8226 leukemia) of 11.8 µM. The TGI (U251 CNS) was 27.8 µM, the TGI (SNB-19 CNS) was 56.8 µM and the TGI (NCI/ADR-RES ovarian) was 43.9 µM. The TGI (M14 melanoma) was 30.6 µM, the TGI (NCI-H23 lung) was 39 µM and the TGI (SNB-75 CNS) was 29.4 µM. It also gave a TGI (UACC-257 melanoma) of 28.5 µM.

With CCOC(=O)C1=CC(C)(C(=O)OCC)Nc2c(nc(N)[nH]c2=O)N1 (stereo not drawn) the TGI (SF-268 CNS) was > 10 µM, the TGI (OVCAR-5 ovarian) was > 10 µM and the TGI (RPMI-8226 leukemia) was > 10 µM. The TGI (U251 CNS) was > 10 µM, the TGI (SNB-19 CNS) was > 10 µM and the TGI (NCI/ADR-RES ovarian) was > 10 µM. The TGI (M14 melanoma) was > 10 µM, the TGI (NCI-H23 lung) was > 10 µM and the TGI (SNB-75 CNS) was > 10 µM. For the same molecule, the TGI (UACC-257 melanoma) was > 10 µM.

With CC(C)C(N)C(=O)NC(CCC(=O)NCCCCC(N)C(=O)NCCCNc1ccc([N+](=O)[O-])c2[nH]c3ccccc3c(=O)c12)C(N)=O (stereo not drawn) the TGI (SF-268 CNS) was > 100 µM, the TGI (OVCAR-5 ovarian) was > 100 µM and the TGI (RPMI-8226 leukemia) was > 100 µM. For the same molecule, the TGI (U251 CNS) was > 100 µM, the TGI (SNB-19 CNS) was > 100 µM and the TGI (NCI/ADR-RES ovarian) was > 100 µM. For the same molecule, the TGI (M14 melanoma) was > 100 µM, the TGI (NCI-H23 lung) was > 100 µM and the TGI (SNB-75 CNS) was > 100 µM. The TGI (UACC-257 melanoma) was > 100 µM.

In the case of C[C@]12CC[C@@H]3c4ccc(O)cc4CC[C@H]3[C@@H]1C/C(=C\c1ccc(C#N)cc1)C2=O, the TGI (SF-268 CNS) is reported as > 100 µM, the TGI (OVCAR-5 ovarian) is reported as > 100 µM and the TGI (RPMI-8226 leukemia) is reported as > 100 µM. For the same molecule, the TGI (U251 CNS) was > 100 µM, the TGI (SNB-19 CNS) was > 100 µM and the TGI (NCI/ADR-RES ovarian) was > 100 µM. For the same molecule, the TGI (M14 melanoma) was > 100 µM, the TGI (NCI-H23 lung) was > 100 µM and the TGI (SNB-75 CNS) was > 100 µM. For the same molecule, the TGI (UACC-257 melanoma) was > 100 µM.

For COc1ccc(-n2nc(C)c3c(Nc4ccc(NC(=O)Nc5ccc(Cl)c(C(F)(F)F)c5)cc4)ncnc32)cc1, the GI50 (SF-268 CNS) was 2.61 µM, the TGI (SF-268 CNS) was 7.99 µM and the GI50 (OVCAR-5 ovarian) was 1.83 µM. It also gave a TGI (OVCAR-5 ovarian) of 4.71 µM, a GI50 (RPMI-8226 leukemia) of 1.34 µM and a TGI (RPMI-8226 leukemia) of 4.21 µM. For the same molecule, the GI50 (U251 CNS) was 1.15 µM, the TGI (U251 CNS) was 3.08 µM and the GI50 (SNB-19 CNS) was 2.49 µM. For the same molecule, the TGI (SNB-19 CNS) was 7.88 µM, the GI50 (NCI/ADR-RES ovarian) was 1.78 µM and the TGI (NCI/ADR-RES ovarian) was 6.22 µM. The GI50 (M14 melanoma) was 1.68 µM, the TGI (M14 melanoma) was 4.32 µM and the GI50 (NCI-H23 lung) was 1.69 µM. It also gave a TGI (NCI-H23 lung) of 3.95 µM, a GI50 (SNB-75 CNS) of 0.553 µM and a TGI (SNB-75 CNS) of 4.55 µM. It also gave a GI50 (UACC-257 melanoma) of 1.88 µM and a TGI (UACC-257 melanoma) of 4.66 µM.

O=C1c2cccc(O)c2C(=O)c2c(OC3OC(CO)C(O)C(O)C3O)cccc21 (stereo not drawn) was tested, and the TGI (SF-268 CNS) was 67.6 µM, the TGI (OVCAR-5 ovarian) was > 100 µM and the TGI (RPMI-8226 leukemia) was > 100 µM. For the same molecule, the TGI (U251 CNS) was > 100 µM, the TGI (SNB-19 CNS) was > 100 µM and the TGI (NCI/ADR-RES ovarian) was 68.4 µM. For the same molecule, the TGI (M14 melanoma) was 51.3 µM, the TGI (NCI-H23 lung) was 31.6 µM and the TGI (SNB-75 CNS) was 54.6 µM. It also gave a TGI (UACC-257 melanoma) of 39.9 µM.

For O=C(CC(C(=O)c1ccco1)c1ccco1)c1ccco1 (stereo not drawn), the TGI (SF-268 CNS) was > 100 µM, the TGI (OVCAR-5 ovarian) was > 100 µM and the TGI (RPMI-8226 leukemia) was > 100 µM. For the same molecule, the TGI (U251 CNS) was > 100 µM, the TGI (NCI/ADR-RES ovarian) was > 100 µM and the TGI (M14 melanoma) was > 100 µM. The TGI (NCI-H23 lung) was > 100 µM, the TGI (SNB-75 CNS) was > 100 µM and the TGI (UACC-257 melanoma) was > 100 µM.

With O=S1(=O)c2cnccc2NC(=NCc2ccccc2)N1c1ccccc1 the TGI (SF-268 CNS) was > 100 µM, the TGI (OVCAR-5 ovarian) was > 100 µM and the TGI (RPMI-8226 leukemia) was 58.8 µM. The TGI (U251 CNS) was > 100 µM, the TGI (SNB-19 CNS) was > 100 µM and the TGI (NCI/ADR-RES ovarian) was > 100 µM. For the same molecule, the TGI (M14 melanoma) was > 100 µM, the TGI (NCI-H23 lung) was > 100 µM and the TGI (SNB-75 CNS) was > 100 µM. For the same molecule, the TGI (UACC-257 melanoma) was > 100 µM.

With CC(C)C1=C(O)C2=C(C(=O)C1=O)C1(C)CCCC(C)(C)C1C(O)C2OC=O (stereo not drawn) the TGI (SF-268 CNS) was 24.4 µM, the TGI (OVCAR-5 ovarian) was 30.9 µM and the TGI (RPMI-8226 leukemia) was 6.9 µM. For the same molecule, the TGI (U251 CNS) was 17.1 µM, the TGI (SNB-19 CNS) was 31.7 µM and the TGI (M14 melanoma) was 29.1 µM. The TGI (NCI-H23 lung) was 20.5 µM, the TGI (SNB-75 CNS) was 23.7 µM and the TGI (UACC-257 melanoma) was 21.6 µM.
